According to ChEMBL document CHEMBL1671849, “Novel, Broad Spectrum Anti-Cancer Agents Containing the Tricyclic 5:7:5-Fused Diimidazodiazepine Ring System” (ACS Med Chem Lett, 2011):

Assays:
[1] = test system: OVCAR-3; assay: Cytotoxicity against human OVCAR3 cells after 72 hrs by WST1 assay; assay type: functional, cell-based; conditions: OVCAR-3, 72 h
[2] = test system: MDA-MB-231; assay: Cytotoxicity against human MDA-MB-231 cells after 72 hrs by WST1 assay; assay type: functional, cell-based; conditions: MDA-MB-231, 72 h
[3] = test system: NCI-H460; assay: Cytotoxicity against human H460 cells after 72 hrs by WST1 assay; assay type: functional, cell-based; conditions: NCI-H460, 72 h
[4] = test system: A549; assay: Cytotoxicity against human A549 cells after 72 hrs by WST1 assay; assay type: functional, cell-based; conditions: A549, 72 h
[5] = test system: PC-3; assay: Cytotoxicity against human PC3 cells after 72 hrs by WST1 assay; assay type: functional, cell-based; conditions: PC-3, 72 h
[6] = test system: MCF7; assay: Cytotoxicity against human MCF7 cells after 72 hrs by WST1 assay; assay type: functional, cell-based; conditions: MCF7, 72 h
[7] = test system: Mus musculus; assay: Toxicity in SCID mouse assessed as histopathological examination of liver at up to 500 mg/kg administered twice week for 7 weeks; assay type: organism-based; parameters: dose 500 mg/kg; conditions: in vivo, 1176 h
[8] = test system: MCF7; assay: Cell cycle arrest in human MCF7 cells assessed as accumulation at G1 phase at 3 uM after 24 hrs by flow cytometry relative to control; assay type: functional
[9] = test system: Mus musculus; assay: Toxicity in SCID mouse assessed as histopathological examination of kidney at up to 500 mg/kg administered twice week for 7 weeks; assay type: organism-based; parameters: dose 500 mg/kg; conditions: in vivo, 1176 h
[10] = test system: Mus musculus; assay: Toxicity in SCID mouse assessed as blood analysis at up to 500 mg/kg administered twice week for 7 weeks; assay type: organism-based; parameters: dose 500 mg/kg; conditions: in vivo, 1176 h
[11] = test system: Mus musculus; assay: Toxicity in SCID mouse assessed as histopathological examination of spleen at up to 500 mg/kg administered twice week for 7 weeks; assay type: organism-based; parameters: dose 500 mg/kg; conditions: in vivo, 1176 h
[12] = test system: MCF7; assay: Cell cycle arrest in human MCF7 cells assessed as accumulation at G2/M phase at 3 uM after 24 hrs by flow cytometry relative to control; assay type: functional
[13] = test system: Mus musculus; assay: Toxicity in SCID mouse assessed as histopathological examination of cerebellum-brain at up to 500 mg/kg administered twice week for 7 weeks; assay type: organism-based; parameters: dose 500 mg/kg; conditions: in vivo, 1176 h
[14] = test system: MCF7; assay: Cell cycle arrest in human MCF7 cells assessed as accumulation at S phase at 3 uM after 24 hrs by flow cytometry relative to control; assay type: functional
[15] = test system: Mus musculus; assay: Toxicity in SCID mouse at up to 500 mg/kg administered twice week for 7 weeks; assay type: organism-based; parameters: dose 500 mg/kg; conditions: in vivo, 1176 h

Structure (SMILES)	IC50 [1]	IC50 [2]	IC50 [3]	IC50 [4]	IC50 [5]	IC50 [6]	Activity [7]	Activity [8]	Activity [9]	Activity [10]	Activity [11]	Activity [12]	Activity [13]	Activity [14]	Activity [15]
COc1ccc(Cn2cnc3c4nc(=O)n(Cc5cccc(OC)c5)c-4ncnc32)cc1	5.1 µM	2.6 µM	1.6 µM	1.5 µM	2.5 µM	6 µM									
COc1ccc(Cn2c3nc(-c4ccc([N+](=O)[O-])cc4)nc4c(ncn4Cc4ccc(OC)cc4)c-3nc2=O)cc1	5.2 µM	3.3 µM	2.5 µM	2.7 µM	4.3 µM	5.7 µM									
COc1ccc(Cn2c3ncnc4c(ncn4Cc4ccc(OC)cc4)c-3nc2=O)cc1	14.5 µM	4.01 µM	2.8 µM	2.5 µM	4.8 µM	7.5 µM	Non-toxic	79.15%	Non-toxic	Non-toxic	Non-toxic	14.5%	Non-toxic	5.87%	Non-toxic
COc1ccc(Cn2cnc3c4nc(=O)n(Cc5ccccc5)c-4ncnc32)cc1	5 µM	2.3 µM	1.8 µM	1.7 µM	4.05 µM	7 µM									
COc1ccc(Cn2cnc3c4nc(=O)n(Cc5ccc(F)cc5)c-4ncnc32)cc1	9 µM	2.5 µM	1.5 µM	1.6 µM	2.1 µM	4 µM									
